Patent US6861395B2, “Method and compositions for inhibiting the growth of microorganisms in metal working fluids” (Arch UK Biocides Limited, priority 2000, dated 2005)

Experiments:
[1] = Temperature stability of biocide in synthetic metal working fluid (storage at 50° C., HPLC); format: physicochemical; details: Synthetic metal working fluid Trim C111A
Method: The biocides shown in Table 1 were added to Trim C111A (ex. Master Chemical Corporation, USA, a synthetic water miscible cutting and grinding fluid used as coolant and lubricant in metal removal processes). […] The metal working fluid was then stored at 50° C. for 45 days.

[2] = Temperature stability of biocide in soluble oil metal working fluid (storage at 50° C., HPLC)
[3] = system: Yeast and Fungi (Fusarium solani, Penicillium sp., Acremonium strictum, Geotrichum candidum); assay: Microbial resistance test based on ASTM E686-91, fungal contamination in semi synthetic metal working fluid; format: cell-based; details: for Fungal Contamination after (days) 10: 10 days; for Fungal Contamination after (days) 31: 31 days; for Fungal Contamination after (days) 87: 87 days; for Fungal Contamination after (days) 110: 110 days; for all read-outs here: key: +++ indicates confluent growth; ++ indicates moderate growth; + indicates slight growth; − indicates no growth
Method: (§1) The following microbial strains were studied:
(§2) The biocides shown in Tables 4, 5 and 6 were added to the metal working fluid shown in each table and assessed for microbial resistance by a method based on ASTM E686-91: Standard Test Method for Evaluation of Antimicrobial Agents in Aqueous Metal Working Fluids as described below.
(§3) The metal working fluids used in the assessment were the same as those used in Examples 1 to 7.
(§4) Bacteria and fungi were gradually acclimatised to the metal working fluid. The organisms were grown up in biocide free metal working fluid (containing 50% (v/v) minimal broth) with aeration at 25° C. until microbial count reached 10^9 cfu/ml. Every 7 days each micro-organism was subcultured into 90 ml (10 ml inoculum) and re-incubated. Subculturing was done for a minimum of three cycles before use.
(§5) To 1I French square bottles, 900 ml of metal working fluid was added at use concentration (diluted to 5% with water of 125 ppm calcium hardness). 100 ml of inoculum was added and mixed (100 ml of total quantity was removed and discarded). The metal working fluid was allowed to sit undisturbed for 64 hours. The metal working fluid was mixed and sampled for microbiological testing.
(§6) Bacteria and fungi were enumerated by streaking an aliquot onto nutrient or malt agar as appropriate. The mixtures were aerated using capillary tubing to bubble air into the bottom of the bottle (introduced by means of a multi-valve air manifold). Antifoam was also added. After 5 days, the aeration was stopped and volume replaced with sterile distilled water. The mixture was allowed to sit for 64 hours and then mixed. 10 ml of inoculum was used to re-inoculate and all losses were replaced with Biocide containing metal working fluid. The pH of the metal working fluid was measured at start of test and every 7 days. […] Aeration was resumed and the regime repeated for a minimum of 6 weeks or until failure.

[4] = system: Yeast and Fungi (Fusarium solani, Penicillium sp., Acremonium strictum, Geotrichum candidum); assay: Microbial resistance test based on ASTM E686-91, fungal contamination in synthetic metal working fluid; format: cell-based; details: for Fungal Contamination after (days) 10: 10 days; for Fungal Contamination after (days) 31: 31 days; for Fungal Contamination after (days) 87: 87 days; for Fungal Contamination after (days) 110: 110 days; for all read-outs here: key: +++ indicates confluent growth; ++ indicates moderate growth; + indicates slight growth; − indicates no growth
Method: as §1, §2, §3, §4, §5, §6

[5] = system: Fusarium solani (ATCC 58877/IMI 314228); assay: MIC by doubling dilution in microtitre plate; format: cell-based
Method: The fungus Fusarium solani (ATCC 58877/IMI 314228) was grown in malt agar for 7-14 days at 25° C. to give a mycelial mat and the spores harvested from the surface using physiological saline to give a suspension containing about 10^6 fungal spores/ml. This was then diluted with malt broth to give a spore suspension containing 10^4 spores/ml. A 100 μl aliquot of this spore suspension was added to each well of a microtitre plate except for the first well which contained 180 μl.
A 20 μl aliquot of this solution was added to the first well of the microtitre plate and thoroughly mixed. 100 μl was withdrawn from the first well, added to the second well and mixed.

[6] = Temperature stability of biocide in semi-synthetic metal working fluid (storage at 50° C., HPLC); details: Semi-synthetic metal working fluid Quaker fluid No. 12717
Method: The biocides shown in Table 1 were added to Trim C111A (ex. Master Chemical Corporation, USA, a synthetic water miscible cutting and grinding fluid used as coolant and lubricant in metal removal processes). The initial concentration of the biocide in the metal working fluid is shown in the third column of Table 1. The metal working fluid was then stored at 50° C. for 45 days.
The concentration of biocide remaining after storage was measured using reverse phase high performance liquid chromatography (HPLC) after initial sample preparation. In the case of 2-n-butyl-benzisothiazolin-3-one, 2-n-octyl-isothiazolin-3-one and 3-iodo-2-propynyl-N-butylcarbamate sample preparation involved solvent extraction of the active from the metal working fluid. For sodium pyrithione, initial sample preparation was derivatisation to produce a compound readily detectable by HPLC.
The stability of the biocides shown in Tables 2 and 3 in semi-synthetic and soluble oil metal working fluids was assessed using the same method described above in Example 1.

Row | Compound | Fungal Contamination after (days) 10 ([3]; 150 ppm) | Fungal Contamination after (days) 31 ([3]; 150 ppm) | Fungal Contamination after (days) 87 ([3]; 150 ppm) | Fungal Contamination after (days) 110 ([3]; 150 ppm) | Fungal Contamination after (days) 10 ([4]; Conc. (a.i.) 150 ppm) | Fungal Contamination after (days) 31 ([4]; Conc. (a.i.) 150 ppm) | Fungal Contamination after (days) 87 ([4]; Conc. (a.i.) 150 ppm) | Fungal Contamination after (days) 110 ([4]; Conc. (a.i.) 150 ppm) | Fungal Contamination after (days) 10 ([3]; 75 ppm) | Fungal Contamination after (days) 31 ([3]; 75 ppm) | Fungal Contamination after (days) 87 ([3]; 75 ppm) | Fungal Contamination after (days) 110 ([3]; 75 ppm) | Fungal Contamination after (days) 10 ([4]; Conc. (a.i.) 75 ppm) | Fungal Contamination after (days) 31 ([4]; Conc. (a.i.) 75 ppm) | Fungal Contamination after (days) 87 ([4]; Conc. (a.i.) 75 ppm) | Fungal Contamination after (days) 110 ([4]; Conc. (a.i.) 75 ppm) | further results
1 | [Na].[O-][n+]1ccccc1S [Sodium Omadine, sodium pyridine-2-thiol-1-oxide, reference compound] | − | − | + | + | ++ | +++ | +++ | +++ |  |  |  |  |  |  |  |  | % Remaining after storage at 50° C. for 45 days ([1]; initial concentration 2500 ppm): 0%; % Remaining after storage at 50° C. for 45 days ([2]; initial concentration 2500 ppm): 0%; MIC ([5]; ATCC58877, 120 h, read-out: MIC values): 18.5 µg/mL; % Remaining after storage at 50° C. for 45 days ([6]; initial concentration 2500 ppm): 0%
2 | CCCCCCCCn1sccc1=O [OIT, 2-n-octyl-isothiazolin-3-one] |  |  |  |  |  |  |  |  |  |  |  |  |  |  |  |  | % Remaining after storage at 50° C. for 45 days ([1]; initial concentration 2000 ppm): 0%; % Remaining after storage at 50° C. for 45 days ([6]; initial concentration 2000 ppm): 0%
3 | CCCCNC(=O)OCC#CI [IPBC, 3-iodo-2-propynyl-N-n-butyl carbamate, reference compound] |  |  |  |  |  |  |  |  | − | − | − | − | − | − | − | − | % Remaining after storage at 50° C. for 45 days ([2]; initial concentration 5000 ppm): 13%; % Remaining after storage at 50° C. for 45 days ([6]; initial concentration 5000 ppm): 0%
4 | CCCCn1sc2ccccc2c1=O [BBIT, 2-n-butyl-1,2-benzisothiazolin-3-one] | − | − | − | − | − | − | − | − | − | − | + | + | − | − | − | − | Fungal Contamination after (days) 10 ([3]; 100 ppm): −; Fungal Contamination after (days) 31 ([3]; 100 ppm): −; Fungal Contamination after (days) 87 ([3]; 100 ppm): −; Fungal Contamination after (days) 110 ([3]; 100 ppm): −; Fungal Contamination after (days) 10 ([4]; Conc. (a.i.) 100 ppm): −; Fungal Contamination after (days) 31 ([4]; Conc. (a.i.) 100 ppm): −; Fungal Contamination after (days) 87 ([4]; Conc. (a.i.) 100 ppm): −; Fungal Contamination after (days) 110 ([4]; Conc. (a.i.) 100 ppm): −; MIC values ([5]; malt broth, visual inspection after 5 days at 25° C.): 6.4 ppm
